Tests used:
Format in all cases: cell-based
[1] = system: Klebsiella pneumonia; assay: MIC against Gram-negative bacteria: Klebsiella pneumonia; conditions: for MIC against K. pneumonia / MIC (μg/mL) K. pneumonia: 5×10^5 CFU/mL
Summary of the method: (§1)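 LB broth cultures at McFarland 0.5, spun down, resuspended, diluted to 5×10^5 CFU/mL final. Two-fold serial dilutions of purified human EGF domain proteins, triplicate. 37° C, 175 rpm shaking. Endpoint: no visible growth.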

[2] = system: E. coli BL21; assay: MIC against Gram-negative bacteria: E. coli BL21; conditions: E. coli BL21; for MIC against E. coli BL21 / MIC (μg/mL) E. coli BL21: 5×10^5 CFU/mL
Summary of the method: as §1

[3] = system: Proteus vulgaris; assay: MIC against Gram-negative bacteria: Proteus vulgaris; conditions: for MIC against P. vulgaris / MIC (μg/mL) P. vulgaris: 5×10^5 CFU/mL
Summary of the method: as §1

[4] = system: Pseudomonas aeruginosa; assay: MIC against Gram-negative bacteria: Pseudomonas aeruginosa; conditions: for MIC against P. aeruginosa / MIC (μg/mL) P. aeruginosa: 5×10^5 CFU/mL
Summary of the method: as §1

[5] = system: Serratia marcescens; assay: MIC against Gram-negative bacteria: Serratia marcescens; conditions: for MIC against S. marcescens / MIC (μg/mL) S. marcescens: 5×10^5 CFU/mL
Summary of the method: as §1

[6] = system: Proteus mirabilis; assay: MIC against Gram-negative bacteria: Proteus mirabilis; conditions: for MIC against P. mirabilis / MIC (μg/mL) P. mirabilis: 5×10^5 CFU/mL
Summary of the method: as §1

[7] = system: Citrobacter diversus; assay: MIC against Gram-negative bacteria: Citrobacter diversus; conditions: for MIC against C. diversus / MIC (μg/mL) C. diversus: 5×10^5 CFU/mL
Summary of the method: as §1

[8] = system: Enterobacter cloacae; assay: MIC against Gram-negative bacteria: Enterobacter cloacae; conditions: for MIC against E. cloacae / MIC (μg/mL) E. cloacae: 5×10^5 CFU/mL
Summary of the method: as §1

[9] = system: E. coli DH5α; assay: Antibacterial activity: MIC and growth curve against E. coli DH5α in 96-well plate; conditions: minimal inhibitory concentration against E. coli DH5α; 96-well plate, 5×10^5 CFU/mL, 37° C., judged after 8 h
Summary of the method: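 MIC taken as lowest protein level with no bacterial growth, tracked by A600 every 30 min during 37 °C, 175 rpm culture. Two-fold protein series 50-12.5 μg/mL final, triplicate wells, against 5×10^5 CFU/mL of LB-washed mid-log cells.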

[10] = system: Aeromonas hydrophila; assay: MIC against Gram-negative bacteria: Aeromonas hydrophila; conditions: for MIC against A. hydrophila / MIC (μg/mL) A. hydrophila: 5×10^5 CFU/mL
Summary of the method: as §1

[11] = system: Moraxella catarrhalis; assay: MIC against Gram-negative bacteria: Moraxella catarrhalis; conditions: for MIC against M. catarrhalis / MIC (μg/mL) M. catarrhalis: 5×10^5 CFU/mL
Summary of the method: as §1

[12] = K. pneumonia, 10 h cultivation at 37° C.
[13] = P. vulgaris, 10 h cultivation at 37° C.
[14] = P. aeruginosa, 10 h cultivation at 37° C.
[15] = S. marcescens, 10 h cultivation at 37° C.
[16] = P. mirabilis, 10 h cultivation at 37° C.
[17] = C. diversus, 10 h cultivation at 37° C.
[18] = E. cloacae, 10 h cultivation at 37° C.
[19] = A. hydrophila, 10 h cultivation at 37° C.
[20] = M. catarrhalis, 10 h cultivation at 37° C.
[21] = Klebsiella pneumonia, 96-well plate, 37° C., 10 h
[22] = Proteus vulgaris, 96-well plate, 37° C., 10 h
[23] = Pseudomonas aeruginosa, 96-well plate, 37° C., 10 h
[24] = Serratia marcescens, 96-well plate, 37° C., 10 h
[25] = Proteus mirabilis, 96-well plate, 37° C., 10 h
[26] = Citrobacter diversus, 96-well plate, 37° C., 10 h
[27] = Enterobacter cloacae, 96-well plate, 37° C., 10 h
[28] = Aeromonas hydrophila, 96-well plate, 37° C., 10 h
[29] = Moraxella catarrhalis, 96-well plate, 37° C., 10 h

PRT927 (DIDDCSSTPCLNGAKCIDHPNGYECQCATGFTGVLCE; listed as Homo sapiens)
MIC [1, 12]: 12.5 mg/L | MIC ([2]; 10 h cultivation at 37° C.): 50 mg/L | MIC [3, 13]: 12.5 mg/L | MIC [4, 14]: 25 mg/L | MIC [5, 15]: 50 mg/L | MIC [6, 16]: 25 mg/L | MIC [7, 17]: 12.5 mg/L | MIC [8, 18]: 25 mg/L | MIC [9]: 25 mg/L | MIC [10, 19]: 50 mg/L | MIC [11, 20]: 50 mg/L

PRT1227 (NLKLCDASNHCDRHGVCNNFNHCHCEKGYNPPYCQ; listed as Homo sapiens)
MIC against K. pneumonia [1, 21]: 25 mg/L | MIC against E. coli BL21 ([2]; 96-well plate, 37° C., 10 h): 25 mg/L | MIC against P. vulgaris [3, 22]: 25 mg/L | MIC against P. aeruginosa [4, 23]: 12.5 mg/L | MIC against S. marcescens [5, 24]: 12.5 mg/L | MIC against P. mirabilis [6, 25]: 12.5 mg/L | MIC against C. diversus [7, 26]: 12.5 mg/L | MIC against E. cloacae [8, 27]: 12.5 mg/L | MIC [9]: 50 mg/L | MIC against A. hydrophila [10, 28]: 12.5 mg/L | MIC against M. catarrhalis [11, 29]: 12.5 mg/L

PRT156 (DINECDSNPCHHGGSCLDQPNGYNCHCPHGWVGANCE; listed as Homo sapiens)
MIC (μg/mL) K. pneumonia [1, 12]: 25 µg/mL | MIC (μg/mL) E. coli BL21 ([2]; 10 h cultivation at 37° C.): 12.5 µg/mL | MIC (μg/mL) P. vulgaris [3, 13]: 50 µg/mL | MIC (μg/mL) P. aeruginosa [4, 14]: 12.5 µg/mL | MIC (μg/mL) S. marcescens [5, 15]: 50 µg/mL | MIC (μg/mL) P. mirabilis [6, 16]: 12.5 µg/mL | MIC (μg/mL) C. diversus [7, 17]: 12.5 µg/mL | MIC (μg/mL) E. cloacae [8, 18]: 12.5 µg/mL | MIC [9]: 25 mg/L | MIC (μg/mL) A. hydrophila [10, 19]: 25 µg/mL | MIC (μg/mL) M. catarrhalis [11, 20]: 50 µg/mL

PRT25 (PGVCRNGGTCTDAPNGGFRCQCPAGGAFEGPRCE; listed as Homo sapiens)
MIC (μg/mL) K. pneumonia [1, 21]: 50 µg/mL | MIC (μg/mL) E. coli BL21 ([2]; 96-well plate, 37° C., 10 h): 50 µg/mL | MIC (μg/mL) P. vulgaris [3, 22]: 25 µg/mL | MIC (μg/mL) P. aeruginosa [4, 23]: 25 µg/mL | MIC (μg/mL) S. marcescens [5, 24]: 12.5 µg/mL | MIC (μg/mL) P. mirabilis [6, 25]: 12.5 µg/mL | MIC (μg/mL) C. diversus [7, 26]: 100 µg/mL | MIC (μg/mL) E. cloacae [8, 27]: 25 µg/mL | MIC [9]: 50 mg/L | MIC (μg/mL) A. hydrophila [10, 28]: 12.5 µg/mL | MIC (μg/mL) M. catarrhalis [11, 29]: 25 µg/mL

PRT757 (RINYCALNKPGCEHECVNMEESYYCRCHRGYTLDPNGKTCS; listed as Homo sapiens)
MIC (μg/mL) K. pneumonia [1, 12]: 12.5 µg/mL | MIC (μg/mL) E. coli BL21 ([2]; 10 h cultivation at 37° C.): 12.5 µg/mL | MIC (μg/mL) P. vulgaris [3, 13]: 25 µg/mL | MIC (μg/mL) P. aeruginosa [4, 14]: 50 µg/mL | MIC (μg/mL) S. marcescens [5, 15]: 50 µg/mL | MIC (μg/mL) P. mirabilis [6, 16]: 12.5 µg/mL | MIC (μg/mL) C. diversus [7, 17]: 12.5 µg/mL | MIC (μg/mL) E. cloacae [8, 18]: 25 µg/mL | MIC [9]: 50 mg/L | MIC (μg/mL) A. hydrophila [10, 19]: 50 µg/mL | MIC (μg/mL) M. catarrhalis [11, 20]: 50 µg/mL

PRT1292 (NVDDCEDNDCENNSTCVDGINNYTCLCPPEYTGELCE; listed as Homo sapiens)
MIC against K. pneumonia [1, 21]: 12.5 mg/L | MIC against E. coli BL21 ([2]; 96-well plate, 37° C., 10 h): 12.5 mg/L | MIC against P. vulgaris [3, 22]: 50 mg/L | MIC against P. aeruginosa [4, 23]: 12.5 mg/L | MIC against S. marcescens [5, 24]: 12.5 mg/L | MIC against P. mirabilis [6, 25]: 12.5 mg/L | MIC against C. diversus [7, 26]: 12.5 mg/L | MIC against E. cloacae [8, 27]: 50 mg/L | MIC [9]: 12.5 mg/L | MIC against A. hydrophila [10, 28]: 25 mg/L | MIC against M. catarrhalis [11, 29]: 50 mg/L

PRT1354 (RDRQCPRDCSNRGLCVDGQCVCEDGFTGPDCA; listed as Homo sapiens)
MIC against K. pneumonia ([1]; Klebsiella pneumonia, 10 h cultivation at 37° C.): 50 mg/L | MIC against E. coli BL21 ([2]; 10 h cultivation at 37° C.): 12.5 mg/L | MIC against P. vulgaris ([3]; Proteus vulgaris, 10 h cultivation at 37° C.): 12.5 mg/L | MIC against P. aeruginosa ([4]; Pseudomonas aeruginosa, 10 h cultivation at 37° C.): 25 mg/L | MIC against S. marcescens ([5]; Serratia marcescens, 10 h cultivation at 37° C.): 25 mg/L | MIC against P. mirabilis ([6]; Proteus mirabilis, 10 h cultivation at 37° C.): 25 mg/L | MIC against C. diversus ([7]; Citrobacter diversus, 10 h cultivation at 37° C.): 25 mg/L | MIC against E. cloacae ([8]; Enterobacter cloacae, 10 h cultivation at 37° C.): 25 mg/L | MIC [9]: 25 mg/L | MIC against A. hydrophila ([10]; Aeromonas hydrophila, 10 h cultivation at 37° C.): 12.5 mg/L | MIC against M. catarrhalis ([11]; Moraxella catarrhalis, 10 h cultivation at 37° C.): 50 mg/L
